System: 3D NHL spheroids with active immune cells
Test: Proteomic analysis of perfusate media from 3D NHL (lymphoma) spheroids on-chip
Format: cell-based
Details: significantly higher than lenalidomide-treated monocultures or spheroids with inactive immune cells, data not shown

Nc1cccc2c1CN(C1CCC(=O)NC1=O)C2=O (centres unmarked) [lenalidomide]
secretion of IL8: increased secretion | secretion of cytolytic granzyme B: increased secretion
